# Measured values taken from patent US9113629B2, “4-amino-6-(4-substituted-phenyl)-picolinates and 6-amino-2-(4-substituted-phenyl)-pyrimidine-4-carboxylates and their use as herbicides” (DOW AGROSCIENCES LLC, priority 2013, dated 2015).
# Read-outs that look alike come from different tables or passages of the source.
# What was measured:
# [1] = tested on: Key Grass and Sedge Weeds as well as Grass Crops; assay: Post-emergent Test II herbicidal activity (Table 6); format: in vivo; details: post-emergence, 336 h; for pest or weed control at 70 g/ha: 70 g ai/ha; for pest or weed control at 140 g/ha: 140 g ai/ha
# How it was run: (§1)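 Visual injury ratings (0 = no injury, 100 = complete kill) were taken 14 d after treatment, relative to untreated plants. Seedlings at the first–second true leaf stage received overhead spray at 187 L/ha; the highest rate was serially diluted to ½×, ¼×, ⅛× and 1/16×.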
# [2] = tested on: Key Broadleaf Weed and Crop Species; assay: Post-emergent Test II herbicidal activity (Table 5); format: in vivo; details: post-emergence, 336 h, 14 days after application; for pest or weed control at 70 g/ha: application rate 70 g ai/ha; for pest or weed control at 140 g/ha: application rate 140 g ai/ha
# How it was run: as §1
# [3] = CYPES: yellow nutsedge (Cyperus esculentus), read-out: Visual Growth Reduction (%) 14 Days After Application, CYPES
# [4] = DIGSA: crabgrass (Digitaria sanguinalis), read-out: Visual Growth Reduction (%) 14 Days After Application, DIGSA
# [5] = ECHCG: barnyardgrass (Echinochloa crus-galli), read-out: Visual Growth Reduction (%) 14 Days After Application, ECHCG
# [6] = ORYSA: rice (Oryza sativa), crop, read-out: Visual Growth Reduction (%) 14 Days After Application, ORYSA
# [7] = SETFA: giant foxtail (Setaria faberi), read-out: Visual Growth Reduction (%) 14 Days After Application, SETFA
# [8] = SORVU: grain sorghum (Sorghum vulgare), read-out: Visual Growth Reduction (%) 14 Days After Application, SORVU
# [9] = TRZSS (wheat, Triticum aestivum), crop, read-out: Visual Growth Reduction (%) 14 Days After Application, TRZSS
# [10] = ZEAMX: maize, corn (Zea mays), crop, read-out: Visual Growth Reduction (%) 14 Days After Application, ZEAMX
# [11] = ABUTH: velvetleaf (Abutilon theophrasti), read-out: Visual Growth Reduction (%) 14 Days After Application, ABUTH
# [12] = AMARE: redroot pigweed (Amaranthus retroflexus), read-out: Visual Growth Reduction (%) 14 Days After Application, AMARE
# [13] = BRSNN: oilseed-rape, canola (Brassica napus), read-out: Visual Growth Reduction (%) 14 Days After Application, BRSNN
# [14] = CHEAL: lambsquarters (Chenopodium album), read-out: Visual Growth Reduction (%) 14 Days After Application, CHEAL
# [15] = EPHHL: wild poinsettia (Euphorbia heterophylla), read-out: Visual Growth Reduction (%) 14 Days After Application, EPHHL
# [16] = HELAN: sunflower (Helianthus annuus), read-out: Visual Growth Reduction (%) 14 Days After Application, HELAN
# [17] = VIOTR: wild pansy (Viola tricolor), read-out: Visual Growth Reduction (%) 14 Days After Application, VIOTR
structure (smiles),measurement,setting,value
"Nc1cc(-c2ccc(C(F)(F)F)c(F)c2F)nc(C(=O)O)c1Cl [Compound 172, 4-amino-3-chloro-6-(2,3-difluoro-4-(trifluoromethyl)phenyl)picolinic acid]",melting point,,161 °C
same,pest or weed control at 70 g/ha,[1]; [3],95 to 100%
same,pest or weed control at 140 g/ha,[1]; [3],95 to 100%
same,pest or weed control at 70 g/ha,[1]; [4],75 to 84%
same,pest or weed control at 140 g/ha,[1]; [4],75 to 84%
same,pest or weed control at 70 g/ha,[1]; [5],95 to 100%
same,pest or weed control at 140 g/ha,[1]; [5],95 to 100%
same,pest or weed control at 70 g/ha,[1]; [6],0 to 29%
same,pest or weed control at 140 g/ha,[1]; [6],0 to 29%
same,pest or weed control at 70 g/ha,[1]; [7],95 to 100%
same,pest or weed control at 140 g/ha,[1]; [7],95 to 100%
same,pest or weed control at 70 g/ha,[1]; [8],75 to 84%
same,pest or weed control at 140 g/ha,[1]; [8],75 to 84%
same,pest or weed control at 70 g/ha,[1]; [9],45 to 59%
same,pest or weed control at 140 g/ha,[1]; [9],60 to 74%
same,pest or weed control at 70 g/ha,[1]; [10],95 to 100%
same,pest or weed control at 140 g/ha,[1]; [10],95 to 100%
same,pest or weed control at 70 g/ha,[2]; [11],95 to 100%
same,pest or weed control at 140 g/ha,[2]; [11],95 to 100%
same,pest or weed control at 70 g/ha,[2]; [12],95 to 100%
same,pest or weed control at 140 g/ha,[2]; [12],95 to 100%
same,pest or weed control at 70 g/ha,[2]; [13],75 to 84%
same,pest or weed control at 140 g/ha,[2]; [13],75 to 84%
same,pest or weed control at 70 g/ha,[2]; [14],85 to 94%
same,pest or weed control at 140 g/ha,[2]; [14],85 to 94%
same,pest or weed control at 70 g/ha,[2]; [15],95 to 100%
same,pest or weed control at 140 g/ha,[2]; [15],95 to 100%
same,pest or weed control at 70 g/ha,[2]; [16],95 to 100%
same,pest or weed control at 140 g/ha,[2]; [16],95 to 100%
same,pest or weed control at 70 g/ha,[2]; [17],45 to 59%
same,pest or weed control at 140 g/ha,[2]; [17],60 to 74%
